Values quoted from earlier work as cited in patent US5648396A, “Methods for treating depression and other disorders using optically pure R (-) fluoxetine and monoamine oxidase inhibitor” (Sepracor Inc., priority 1995, dated 1997).
“Also recorded” adds a separate entry of the source.

Columns and labels:
[1] = system: writhing (morphine potentiation); conditions: Robertson et al 1988
5HT1 receptor = conditions: relative to effect on 5HT uptake
Feeding = conditions: rel. potency R vs S, Wong et al 1988
PCPA effect on 5HT = conditions: for Duration of Inhibition of PCPA 5HT effect / Inhibition of PCPA effect on 5HT (full block): Fuller & Snoddy 1986; for Inhibition of PCPA effect on 5HT (ED50): Robertson et al 1988
D2 receptor = conditions: relative to effect on 5HT uptake
α1A receptor = conditions: relative to effect on 5HT uptake
D1 receptor = conditions: relative to effect on 5HT uptake
Saccharine palatability = conditions: Robertson et al 1988
α2 receptor = conditions: relative to effect on 5HT uptake
acetic acid writhing = conditions: Robertson et al 1988
uptake of norepinephrine = conditions: relative to effect on 5HT uptake
β receptor = conditions: relative to effect on 5HT uptake
HT2 receptor = conditions: relative to effect on 5HT uptake
5HT1A receptor = conditions: relative to effect on 5HT uptake
[2] = L-form versus D-enantiomer
[3] = system: morning sickness during pregnancy; conditions: control of morning sickness during pregnancy; suggested
[4] = suggested
α1 adrenergic receptors = conditions: than tricyclic antidepressants; brain tissue
patients [5] = conditions: in vivo
histaminergic receptors = conditions: than tricyclic antidepressants; brain tissue
5HIAA = conditions: acute effect; Wong et al. 1985
patients [6] = system: patients
[7] = system: dopamine turnover in striatum; conditions: in vivo
[8] = racemic mixture

Row | Compound | Inhibition of writhing (morphine potentiation; ED50) [1] [mg/kg] | affinity for 5HT1 receptor (5HT1 receptor) | Duration of Inhibition of PCPA 5HT effect (PCPA effect on 5HT) | Inhibition of PCPA effect on 5HT (ED50) (PCPA effect on 5HT) [mg/kg] | Inhibition of PCPA effect on 5HT (full block) (PCPA effect on 5HT) | affinity for D2 receptor (D2 receptor) | affinity for α1A receptor (α1A receptor) | affinity for D1 receptor (D1 receptor) | Inhibition of Saccharine palatability (ED50) (Saccharine palatability) [mg/kg] | affinity for α2 receptor (α2 receptor) | Inhibition of acetic acid writhing (ED50) (acetic acid writhing) [mg/kg] | affinity for the uptake of norepinephrine (uptake of norepinephrine) | affinity for β receptor (β receptor) | affinity for HT2 receptor (HT2 receptor) | affinity for 5HT1A receptor (5HT1A receptor) | also measured
1 | CNCC[C@@H](Oc1ccc(C(F)(F)F)cc1)c1ccccc1 [R-Fluoxetine, (-)N-methyl-3-phenyl-3-[(α,α,α-trifluoro-p-tolyl)-oxy]-propylamine] | 3.6 | relatively little affinity | ~ 8 hr | 2.1 | ~ 10 mg/kg | relatively little affinity | relatively little affinity | relatively little affinity | 6.1 | relatively little affinity | 15.3 | relatively little affinity | relatively little affinity | relatively little affinity | relatively little affinity | Inhibition of Feeding (meal fed, 2DG) (rel. potency) (Feeding): R < S
2 | CC(C)NC[C@H](O)COc1cccc2ccccc12 [L-form of propranolol] | – | – | – | – | – | – | – | – | – | – | – | – | – | – | – | potency relative to the D-enantiomer [2]: 100 times
3 | O=C1CC[C@@H](N2C(=O)c3ccccc3C2=O)C(=O)N1 [D-enantiomer of thalidomide] | – | – | – | – | – | – | – | – | – | – | – | – | – | – | – | sedative effect [3]: safe and effective sedative
4 | CNCC[C@H](Oc1ccc(C(F)(F)F)cc1)c1ccccc1 [S-Fluoxetine] | 5.7 | relatively little affinity | > 24 h | 1.2 | ~ 5 mg/kg | relatively little affinity | relatively little affinity | relatively little affinity | 4.9 | relatively little affinity | 25.7 | relatively little affinity | relatively little affinity | relatively little affinity | relatively little affinity | –
5 | O=C1CC[C@H](N2C(=O)c3ccccc3C2=O)C(=O)N1 [L-enantiomer of thalidomide] | – | – | – | – | – | – | – | – | – | – | – | – | – | – | – | teratogenicity [4]: potent teratogen
6 | CNCCC(Oc1ccc(C(F)(F)F)cc1)c1ccccc1 (racemic) [R,S-Fluoxetine] | – | – | – | – | – | – | – | – | – | – | – | – | – | – | – | binding to α1 adrenergic receptors (α1 adrenergic receptors): much less potently; wait after discontinuing fluoxetine before starting treatment with an MAOI (patients [5]): 5-6 weeks; binding to histaminergic receptors (histaminergic receptors): much less potently; levels of the intracellular serotonin metabolite 5HIAA (5HIAA): rapid reduction; drug discontinuation due to headaches, nervousness, anxiety and insomnia (patients [6]; of patients treated with the drug): 5%; adverse effects (in words) (patients [6]; patients): produces a state of inner restlessness (akathisia); also recorded: severe anxiety leading to intense violent suicidal thoughts and self mutilation; also recorded: manic behavior; also recorded: nausea, diarrhea, drowsiness, decrease in libido, and/or sexual dysfunction; anticholinergic and cardiovascular side effects (patients [6]; versus tricyclic antidepressants): less anticholinergic side effects such as blurred vision, dry mouth, constipation and urinary retention; also recorded: less lowering of blood pressure, tachycardia and arrhythmias; dopamine turnover in striatum [7]: affects dopamine turnover in striatum; half-life and duration of action (in words) [8]: long half-life and long duration of action
